Laboratory results taken from patent US20100029657A1, “Bridged, Bicyclic Heterocyclic or Spiro Bicyclic Heterocyclic Derivatives of Pyrazolo[1, 5-A]Pyrimidines, Methods for Preparation and Uses Thereof” (Wyeth, priority 2008, published 2010).

These molecules were tested against T1, Flag/GST-tagged recombinant human B-Raf (Homo sapiens, UniProt P15056) (assay: B-Raf kinase assay (phosphorylation of GST-MEK1, phospho-MEK1 antibody/Europium detection)). Conditions: B-Raf IC50 Data for compounds of Formula A; read-out: Mean IC50.
T1 construct: Flag; GST; made in house; host or cells: Sf9 insect cells (B-Raf); E. coli (MEK1-GST)
T1 sequence (P15056 whole entry): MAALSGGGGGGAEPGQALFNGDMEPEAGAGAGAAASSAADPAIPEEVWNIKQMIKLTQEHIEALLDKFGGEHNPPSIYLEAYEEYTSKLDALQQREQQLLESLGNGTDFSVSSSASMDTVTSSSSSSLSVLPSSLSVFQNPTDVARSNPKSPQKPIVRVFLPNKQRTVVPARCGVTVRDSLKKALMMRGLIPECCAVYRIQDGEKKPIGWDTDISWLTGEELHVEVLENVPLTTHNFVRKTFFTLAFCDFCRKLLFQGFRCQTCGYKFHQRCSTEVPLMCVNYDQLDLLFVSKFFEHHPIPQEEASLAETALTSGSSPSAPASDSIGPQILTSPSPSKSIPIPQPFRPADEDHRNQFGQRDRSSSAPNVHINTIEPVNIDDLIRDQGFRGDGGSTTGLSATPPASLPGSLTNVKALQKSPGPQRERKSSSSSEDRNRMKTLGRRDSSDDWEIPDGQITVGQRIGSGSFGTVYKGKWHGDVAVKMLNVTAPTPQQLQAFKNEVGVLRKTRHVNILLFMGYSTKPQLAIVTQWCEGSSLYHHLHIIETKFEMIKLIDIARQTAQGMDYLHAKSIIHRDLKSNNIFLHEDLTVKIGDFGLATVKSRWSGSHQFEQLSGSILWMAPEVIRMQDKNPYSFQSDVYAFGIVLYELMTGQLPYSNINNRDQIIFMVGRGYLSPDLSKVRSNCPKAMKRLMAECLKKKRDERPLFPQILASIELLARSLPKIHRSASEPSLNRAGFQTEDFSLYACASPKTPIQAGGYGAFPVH
Type: biochemical
How it was run: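 Active B-Raf (0.2 nM) phosphorylates GST-MEK1 in 20 mM MOPS pH 7.2 buffer with DTT, vanadate and 0.01% Triton X-100. The Mg/ATP cocktail (200 μM ATP, 40 mM MgCl2) is added, then incubation runs 45 min at RT. Product is captured on anti-GST plates and detected by anti-phospho-MEK1 plus Europium-anti-rabbit fluorescence, giving % inhibition per concentration.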

IC50	SMILES
2.1 nM	O=C([C@@H]1CCCN1)N1C2CCC1CC(c1ccnc3c(-c4cccc5[nH]ncc45)c(-c4ccncc4)nn13)C2 (stereo partly drawn) [Example 129, 3-(1H-indazol-4-yl)-7-(8-L-prolyl-8-azabicyclo[3.2.1]oct-3-yl)-2-pyridin-4-ylpyrazolo[1,5-a]pyrimidine]
1 nM	CCOC(=O)N1C2CCC1CC(c1ccn3nc(-c4ccncc4)c(-c4ccc(F)c5[nH]ncc45)c3n1)C2 (stereo not drawn) [Example 131, ethyl 3-[3-(7-fluoro-1H-indazol-4-yl)-2-pyridin-4-ylpyrazolo[1,5-a]pyrimidin-5-yl]-8-azabicyclo[3.2.1]octane-8-carboxylate]
0.4 nM	COc1cccc(-c2c(-c3ccncc3)nn3c(-c4ccc(N5C[C@@H]6C[C@H]5CN6)cc4F)ccnc23)c1 [Example 132, 7-{4-[(1S,4S)-2,5-diazabicyclo[2.2.1]hept-2-yl]-2-fluorophenyl}-3-(3-methoxyphenyl)-2-pyridin-4-ylpyrazolo[1,5-a]pyrimidine]
< 0.3 nM	Oc1cccc(-c2c(-c3ccncc3)nn3c(-c4ccc(N5C[C@@H]6C[C@H]5CN6)cc4F)ccnc23)c1 [Example 133, 3-(7-{4-[(1S,4S)-2,5-diazabicyclo[2.2.1]hept-2-yl]-2-fluorophenyl}-2-pyridin-4-ylpyrazolo[1,5-a]pyrimidin-3-yl)phenol]
< 0.3 nM	CN1C[C@@H]2C[C@H]1CN2c1ccc(-c2ccnc3c(-c4cccc(O)c4)c(-c4ccncc4)nn23)c(F)c1 [Example 134, 3-(7-{2-fluoro-4-[(1S,4S)-5-methyl-2,5-diazabicyclo[2.2.1]hept-2-yl]phenyl}-2-pyridin-4-ylpyrazolo[1,5-a]pyrimidin-3-yl)phenol]
< 0.3 nM	Cc1cc(N2C[C@@H]3C[C@H]2CN3)ccc1-c1ccnc2c(-c3ccc(F)c4[nH]ncc34)c(-c3ccncc3)nn12 [Example 135, 7-{4-[(1S,4S)-2,5-diazabicyclo[2.2.1]hept-2-yl]-2-methylphenyl}-3-(7-fluoro-1H-indazol-4-yl)-2-pyridin-4-ylpyrazolo[1,5-a]pyrimidine]
< 0.3 nM	Cc1cc(N2C[C@@H]3C[C@H]2CN3C)ccc1-c1ccnc2c(-c3ccc(F)c4[nH]ncc34)c(-c3ccncc3)nn12 [Example 136, 3-(7-fluoro-1H-indazol-4-yl)-7-{2-methyl-4-[(1S,4S)-5-methyl-2,5-diazabicyclo[2.2.1]hept-2-yl]phenyl}-2-pyridin-4-ylpyrazolo[1,5-a]pyrimidine]
0.4 nM	N#CCN1C2CCC1CC(c1ccnc3c(-c4ccc(F)c5[nH]ncc45)c(-c4ccncc4)nn13)C2 (stereo not drawn) [Example 138, {3-[3-(7-fluoro-1H-indazol-4-yl)-2-pyridin-4-ylpyrazolo[1,5-a]pyrimidin-7-yl]-8-azabicyclo[3.2.1]oct-8-yl}acetonitrile]
1.2 nM	Clc1ccc(-c2c(-c3ccncc3)nn3ccc(-c4ccc(N5C[C@@H]6C[C@H]5CN6)cc4)nc23)c2cn[nH]c12 [Example 139, 3-(7-chloro-1H-indazol-4-yl)-5-{4-[(1S,4S)-2,5-diazabicyclo[2.2.1]hept-2-yl]phenyl}-2-pyridin-4-ylpyrazolo[1,5-a]pyrimidine]
1.2 nM	CN1C2CCC1CN(c1ccc(-c3ccnc4c(-c5cccc6[nH]ncc56)c(-c5ccncc5)nn34)cn1)C2 [Example 140, 3-(1H-indazol-4-yl)-7-[6-(8-methyl-3,8-diazabicyclo[3.2.1]oct-3-yl)pyridin-3-yl]-2-pyridin-4-ylpyrazolo[1,5-a]pyrimidine]
2.3 nM	CN1C[C@@H]2C[C@H]1CN2c1ccc(-c2ccnc3c(-c4ccc(Cl)c5[nH]ncc45)c(-c4ccncc4)nn23)cc1 [Example 141, 3-(7-chloro-1H-indazol-4-yl)-7-{4-[(1S,4S)-5-methyl-2,5-diazabicyclo[2.2.1]hept-2-yl]phenyl}-2-pyridin-4-ylpyrazolo[1,5-a]pyrimidine]
2.2 nM	c1cc(-c2c(-c3ccncc3)nn3c(C4CCC5(CC4)OCCO5)ccnc23)c2cn[nH]c2c1 [Example 142, 7-(1,4-dioxaspiro[4.5]dec-8-yl)-3-(1H-indazol-4-yl)-2-pyridin-4-ylpyrazolo[1,5-a]pyrimidine]
0.7 nM	CN1C[C@@H]2CC[C@H]1CN2c1ccc(-c2ccnc3c(-c4cccc5[nH]ncc45)c(-c4ccncc4)nn23)cc1 [Example 143, 3-(1H-indazol-4-yl)-7-{4-[(1S,4S)-5-methyl-2,5-diazabicyclo[2.2.2]oct-2-yl]phenyl}-2-pyridin-4-ylpyrazolo[1,5-a]pyrimidine]
0.6 nM	c1cc(-c2c(-c3ccncc3)nn3c(-c4ccc(N5C[C@@H]6CC[C@H]5CN6)cc4)ccnc23)c2cn[nH]c2c1 [Example 144, 7-{4-[(1S,4S)-2,5-diazabicyclo[2.2.2]oct-2-yl]phenyl}-3-(1H-indazol-4-yl)-2-pyridin-4-ylpyrazolo[1,5-a]pyrimidine]
74.4 nM	Fc1cc(F)c(-c2ccnc3c(-c4cccc5[nH]ncc45)c(-c4ccncc4)nn23)c(N2C[C@@H]3C[C@H]2CN3)c1 [Example 145, 7-{2-[(1S,4S)-2,5-diazabicyclo[2.2.1]hept-2-yl]-4,6-difluorophenyl}-3-(1H-indazol-4-yl)-2-pyridin-4-ylpyrazolo[1,5-a]pyrimidine]
6.3 nM	CN(C)c1cc(N2C[C@@H]3C[C@H]2CN3)ccc1-c1ccnc2c(-c3cccc4[nH]ncc34)c(-c3ccncc3)nn12 [Example 146, 5-[(1S,4S)-2,5-diazabicyclo[2.2.1]hept-2-yl]-2-[3-(1H-indazol-4-yl)-2-pyridin-4-ylpyrazolo[1,5-a]pyrimidin-7-yl]-N,N-dimethylaniline]
> 100 nM	CN1C[C@@H]2C[C@H]1CN2c1cc(F)cc(F)c1-c1ccnc2c(-c3cccc4[nH]ncc34)c(-c3ccncc3)nn12 [Example 147, 7-{2,4-difluoro-6-[(1S,4S)-5-methyl-2,5-diazabicyclo[2.2.1]hept-2-yl]phenyl}-3-(1H-indazol-4-yl)-2-pyridin-4-ylpyrazolo[1,5-a]pyrimidine]
7.3 nM	CN(C)c1cc(N2C[C@@H]3C[C@H]2CN3C)ccc1-c1ccnc2c(-c3cccc4[nH]ncc34)c(-c3ccncc3)nn12 [Example 148, 2-[3-(1H-indazol-4-yl)-2-pyridin-4-ylpyrazolo[1,5-a]pyrimidin-7-yl]-N,N-dimethyl-5-[(1S,4S)-5-methyl-2,5-diazabicyclo[2.2.1]hept-2-yl]aniline]
3.2 nM	c1cc(-c2c(-c3ccncc3)nn3c2nccc3[C@H]2CC[C@@H](N3C[C@@H]4C[C@H]3CN4)CC2)c2cn[nH]c2c1 [Example 149, 7-{cis-4-[(1S,4S)-2,5-diazabicyclo[2.2.1]hept-2-yl]cyclohexyl}-3-(1H-indazol-4-yl)-2-pyridin-4-ylpyrazolo[1,5-a]pyrimidine]

SMILES	IC50
CC(=O)CN1C2CCC1CC(c1ccnc3c(-c4cccc5[nH]ncc45)c(-c4ccncc4)nn13)C2 (stereo not drawn) [Example 130, 1-{3-[3-(1H-indazol-4-yl)-2-pyridin-4-ylpyrazolo[1,5-a]pyrimidin-7-yl]-8-azabicyclo[3.2.1]oct-8-yl}propan-2-one]	75.9 nM
Fc1ccc(-c2c(-c3ccncc3)nn3c(C4CC5CCC(C4)N5)ccnc23)c2cn[nH]c12 (stereo not drawn) [Example 137, 7-(8-azabicyclo[3.2.1]oct-3-yl)-3-(7-fluoro-1H-indazol-4-yl)-2-pyridin-4-ylpyrazolo[1,5-a]pyrimidine]	3.8 nM
